Where a SMILES comes first, the peptide text is derived from it. Bridges are numbered along the chain shown (N, C = ends). Flu = fluorescein; βAla = NCCC(=O)O
What was measured:
[1] = format: physicochemical; details: for θ222/θ208 / [θ]192 / [θ]208 / [θ]222: Table 8; for [θ]192 / [θ]208 / [θ]222: one or more cyclic pentapeptide modules versus linear peptides; for % helicity: fH × 100, [θ∞H]222 = −44000, k = 2.6
Summary of the method: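 Peptides at 50 μM final in 10 mM sodium phosphate pH 7.4, with or without TFE or guanidine·HCl, were scanned 310-185 nm in a 0.1 cm cell (5-scan average). Ellipticity was converted to mean peptide ellipticity; helicity came from [θ]215 with temperature-dependent coil/helix limits, relative helicity scaled to reference peptides.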

trypsin [2] = assay: in vitro; format: in vitro ADME; details: isolated enzyme trypsin, pH 8
Procedure: Solutions of SEQ ID NO: 46 (25 μM) and linear peptide SEQ ID NO: 54 (26 μM) were incubated with trypsin (1 μg/mL) in 25 mM ammonium carbonate buffer (pH=8) at room temperature. Aliquots were taken at 30 seconds, 1 minute, 5 minutes, 15 minutes, 30 minutes, 1 hour and 2 hours, and diluted with an equivalent volume of 3% trifluoroacetic acid. The resultant solutions were analyzed using a 2×75 mm, 3 μm, Aqua C-18 column (Phenomenex) equilibrated in aqueous formic acid (0.1%). Peptide cleavage products were eluted using a linear gradient of acetonitrile from 0 to 80% in aqueous 0.01% formic acid over 20 minutes at a rate of 300 μL/min. Rate of degradation of either SEQ ID NO: 32 or SEQ ID NO: 43 was quantified by determining extracted ion counts of chromatograms relative to control solutions (containing no enzyme) using a QSTAR PULSAR Electrospray QqTOF Mass Spectrometer and analyzed using BioMultiview (SCIEX Software). Retention time of SEQ ID NO: 46=11.64 minutes. Retention time of linear peptide SEQ ID NO: 54=7.43 minutes. SEQ ID NO: 46 was also found to be highly resistant to proteolytic cleavage by trypsin (97% recovered intact after 2 h), whereas the linear peptide […] (SEQ ID NO: 54) was completely degraded within 30 seconds.

trypsin [3] = assay: Proteolytic stability of the helix, trypsin digestion (Example 10); format: in vitro ADME; details: pH 8.2, room temperature, 1 to 155 minutes
Procedure: A standard solution of Ac—KARAD-NH2 and Ac—(cyclo-1,5)-KARAD-NH2 (1 mg/mL) was prepared in 100 mM ammonium carbonate buffer at pH˜8.2. To 100 μL of each solution was added 1 mg/mL of trypsin (1 μL). The digest was conducted at room temperature with 5 μL aliquots taken at 1, 4, 8, 28, 48, 55, 110, 155 minutes. Aliquots were diluted with 5 μL of 3% TFA to stop the reaction. and analyzed by LC-MS using 2.1×150 mm Phenomenex 300 Å C18 5 μm column, with a 3% per minute linear gradient of 0-60% acetonitrile over 20 minutes. The amount of starting material left in each sample was quantified by determination of total ion counts for the molecular ion.
Compound of SEQ ID NO 8 and its acyclic version SEQ ID NO: 14 were incubated with trypsin (pH 8.2), aliquots removed at intervals between 1 and 155 minutes, and analyzed by LCMS. […] Similarly the cyclic compound 8 was not degraded by human serum (1 h, 37° C.). […] This is consistent with other observations that only an extended or linear peptide conformation is recognized, not only by trypsin, but by all proteolytic enzymes^125 Presumably the cycle is too tightly locked into an alpha helical turn to permit significant unwinding to the extended format needed for recognition by trypsin.

Serum stability = format: in vitro ADME; details: 1 h, 37° C
Procedure: Standard solutions of Ac—KARAD-NH2 and Ac—(cyclo-1,5)-KARAD-NH2 (1 mg/mL) were prepared in water. 200 μL of each peptide was added to human serum 800 μL and incubated at 37° C. Acetonitrile/water 3:1 (300 μL) was added to aliquots (100 μL) of serum at 5, 15, 30, 45 and 60 minutes to precipitate serum proteins, which were removed by centrifugation. The decanted supernatant was analyzed by LC-MS MS with a 2.1×150 mm Phenomenex 300 Å C18 5 um column, using a 3% per minute linear gradient from 0%-60% acetonitrile over 20 minutes. The amount of starting material left in each sample was quantified by determination of total ion counts for the molecular ion.

[4] = Stability against denaturants (guanidine.HCl, temperature) followed by CD; format: physicochemical; details: 8M guanidinium chloride, 25° C
Procedure: Proteolytic stability of the helix. trypsin digestion
The helical macrocycles were conformationally very stable even under protein-denaturing conditions, as illustrated by the low dependence of their CD spectra on temperature between 5-65° C. (FIG. 9a) and on the concentration of guanidine.HCl (FIG. 9b).
CD experiments were performed on a Jasco Model J-710 spectropolarimeter which was routinely calibrated with (1S)-(+)-10-camphorsulfonic acid. Temperature control was achieved using a Neslab RTE-111 circulating water bath. Spectra were recorded in a 0.1 cm Jasco cell between 310-185 nm at 50 nm/min with a band width of 1.0 nm, response time of 2 sec, resolution step width of 0.1 nm and sensitivity of 20, 50 or 100 mdeg. Each spectrum represents the average of 5 scans with smoothing to reduce noise. Peptide samples for CD spectroscopy were dissolved in distilled water (˜1 mg/mL). Each stock solution was diluted to a final concentration of 50 μM in 10 mM sodium phosphate buffer (pH7.4), with or without additives (2,2,2-trifluoroethanol (TFE) or guanidine.HCl). Guanidine.HCl denaturation experiments were performed according to Creighton^105.

MDM2 [5] = biological target: T1, MDM2 (Homo sapiens, UniProt Q00987); details: read-out: dissociation constant; cited from earlier work
T1 sequence (Q00987 whole entry): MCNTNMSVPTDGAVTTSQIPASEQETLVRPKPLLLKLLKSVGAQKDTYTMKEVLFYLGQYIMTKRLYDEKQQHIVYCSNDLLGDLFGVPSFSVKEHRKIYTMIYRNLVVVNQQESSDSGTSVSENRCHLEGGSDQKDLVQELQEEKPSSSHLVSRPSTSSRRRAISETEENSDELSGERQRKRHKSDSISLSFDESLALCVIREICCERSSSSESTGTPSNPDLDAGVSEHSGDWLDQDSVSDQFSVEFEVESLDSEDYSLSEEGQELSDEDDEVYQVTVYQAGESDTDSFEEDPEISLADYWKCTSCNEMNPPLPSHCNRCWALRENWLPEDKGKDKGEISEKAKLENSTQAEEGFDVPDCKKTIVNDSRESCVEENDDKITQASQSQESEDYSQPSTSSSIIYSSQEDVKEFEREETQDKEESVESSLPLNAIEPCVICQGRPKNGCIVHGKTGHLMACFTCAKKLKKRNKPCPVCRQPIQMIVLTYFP

MDM2 [6] = biological target: T1, MDM2; details: cited from earlier work
Bcl-xL = Bcl-xL (Homo sapiens, UniProt Q07817); details: read-out: dissociation constant; cited from earlier work
Sequence of Bcl-xL (Q07817 whole entry, species assumed): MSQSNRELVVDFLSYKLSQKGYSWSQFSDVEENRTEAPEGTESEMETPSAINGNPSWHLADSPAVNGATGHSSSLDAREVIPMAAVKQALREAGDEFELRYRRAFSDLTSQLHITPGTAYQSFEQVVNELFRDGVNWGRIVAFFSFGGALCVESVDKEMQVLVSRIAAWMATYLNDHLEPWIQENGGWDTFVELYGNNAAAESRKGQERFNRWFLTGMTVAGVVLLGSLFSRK

Bcl-2 = Bcl-2 (Homo sapiens, UniProt P10415); details: read-out: dissociation constant; cited from earlier work
Sequence of Bcl-2 (P10415 whole entry, species assumed): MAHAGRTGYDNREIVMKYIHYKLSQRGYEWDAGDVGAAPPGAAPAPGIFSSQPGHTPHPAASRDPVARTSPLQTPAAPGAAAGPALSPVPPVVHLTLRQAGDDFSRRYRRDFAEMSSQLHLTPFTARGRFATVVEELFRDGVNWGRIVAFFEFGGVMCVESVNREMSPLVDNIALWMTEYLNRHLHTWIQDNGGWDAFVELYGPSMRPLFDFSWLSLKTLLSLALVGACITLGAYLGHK

For `CC(=O)N[C@H]1CCCCNC(=O)C[C@@H](C(=O)N[C@H]2CCCCNC(=O)C[C@@H](C(N)=O)NC(=O)[C@H](C)NC(=O)[C@H](CCCNC(=N)N)NC(=O)[C@H](C)NC2=O)NC(=O)[C@H](C)NC(=O)[C@H](CCCNC(=N)N)NC(=O)[C@H](C)NC1=O` [SEQ ID NO: 46] (Ac-KARADKARAD-NH2; lactam 1-5, 6-10), the θ222/θ208 [1] was 1.29, the “[θ]192” value [1] was 104187 degcm^2dmol^−1residue^−1 and the “[θ]208” value [1] was −24957 degcm^2dmol^−1residue^−1. The “[θ]222” value [1] was −32340 degcm^2dmol^−1residue^−1, the “% helicity” value [1] was 99% and the remaining at 2 h, 25 μM (trypsin [2]) was 97%.

For `CC(=O)N[C@H]1CCCCNC(=O)C[C@@H](C(N)=O)NC(=O)[C@H](C)NC(=O)[C@H](CCCNC(=N)N)NC(=O)[C@H](C)NC1=O` [SEQ ID NO: 8, Ac-(cyclo-1,5)-[KARAD]-NH2] (Ac-KARAD-NH2; lactam 1-5), the “molar elipticity at 215 nm in helix stabilizing solvent” value [1] was “does not increase”, the θ222/θ208 [1] was 0.98 and the “[θ]192” value [1] was 52191 degcm^2dmol^−1residue^−1. For the same molecule, the “[θ]208” value [1] was −17039 degcm^2dmol^−1residue^−1, the “[θ]222” value [1] was −15464 degcm^2dmol^−1residue^−1 and the Relative helicity ([1]; [θ]215 relative to SEQ ID NO: 8, 10 mM phosphate buffer, pH 7.4, 25° C) was 1.00. For the same molecule, the percentage helicities ([1]; equation 2b with k˜4, assuming 8 has 100% helicity) was 100%, the “% helicity” value [1] was 79% and the “helicity on variation of the k factor” value ([1]; k factor from 2.4 to 4.5) was 56-135%. The “[θ]190” value ([1]; molar elipticity at 190 nm, 10 mM phosphate buffer, pH 7.4, 25° C) was 38300 deg.cm^2.dmol^−1.residue^−1, the “[θ]207” value ([1]; molar elipticity at 207 nm, 10 mM phosphate buffer, pH 7.4, 25° C) was −12211 deg.cm^2.dmol^−1.residue^−1 and the “[θ]215” value ([1]; molar elipticity at 215 nm, 10 mM phosphate buffer, pH 7.4, 25° C) was −12757 deg.cm^2.dmol^−1.residue^−1. For the same molecule, the θ215/θ207 ([1]; ratio of elipticities, 10 mM phosphate buffer, pH 7.4, 25° C) was 1.04, the “stability to trypsin (starting material left, LCMS)” value (trypsin [3]) was “remained intact” and the “degradation by human serum” value (Serum stability) was “not degraded”. For the same molecule, the “alpha helicity (molar elipticity at 215 nm) in denaturant” value [4] was “maintains full alpha helicity”.

For Ac—FR(Dpr-Flu)(Ac6c)(6-Br—W)EEL-NH2, the Kd (MDM2 [5]) is given as 2 nM.

In the case of “Acetyl-Phe-Met-Aib-Pmp-6C1W-Glu-Ac3c-Leu-NH2”, the IC50 (MDM2 [6]) is given as 5 nM.

In the case of “Flu-βANLWAAQRYGRELRRMSDKKFVDSFKK-NH2 ({Flu-βAla}-ANLWAAQRYGRELRRMSDKKFVDSFKK-NH2)”, the Kd (Bcl-xL) is given as 0.6 nM and the Kd (Bcl-2) is given as 3 nM.
